Measurements published in publication PMC8272044, “5-Phenoxy Primaquine Analogs and the Tetraoxane Hybrid as Antimalarial Agents” (Molecules, 2021).
Where two headings read alike, the source gives them in different places.

What was measured:
P. falciparum 3D7 = assay: In vitro blood antimalarial activity, malaria SYBR green I-based fluorescence (MSF) method; assay type: cell-based; details: Plasmodium falciparum; P. falciparum 3D7, blood stage, 48 h, mean ± SD of three biological repeats
Description: P. falciparum strain 3D7 (wild-type drug sensitive strain) was used in this study. This parasite was maintained continuously in vitro in human O+ erythrocytes (4% hematocrit) at 37 °C under 3% CO2 and 90% N2 in RPMI 1640 culture media (Life Technologies Limited, Paisley, UK) containing 2 mM L-Glutamine, 25 mM HEPES (Sigma), pH 7.4, 2g/L NaHCO3, 40 mg/L gentamicin, 0.37 mM hypoxanthine, and supplemented with 5 g/L Albumax I (Life Technologies, Grand Island, NY, USA). Every 3 to 4 days, the parasite culture was synchronized with 5% sorbitol and transferred into complete medium with uninfected erythrocytes. In vitro antimalarial activity was determined by using the malaria SYBR green I-based fluorescence (MSF) method. Briefly, 0.09 mL of cultured 1% ring-stage synchronized parasites and 2% hematocrit were transferred to individual wells of a standard 96-well microtiter plate and in vitro culture continued for 48 h, with 0.01 mL of compound at different concentration in each well. The compounds were first dissolved in DMSO and diluted with RPMI medium to 1% DMSO. The final concentration of DMSO in each well was 0.1%, which caused no effect on the parasite viability. Following 48 h, SYBR Green I solution (0.02 µL of 10,000X SYBR Green I/100 µL of buffer solution consisted of 20 mM Tris 20, pH 7.5, 5 mM EDTA, 0.008% w/v saponin and 0.08% v/v Triton X-100) was then added to each well, and fluorescence signals were measured by spectrofluorometer at ex485/em 535 nm. […] The result of each compound was normalized with control media for the overall background subtraction as 0% and untreated parasite with 0.1% DMSO as 100% control.

hematin polymerization [1] = test system: hematin polymerization; design: method as in PMID 10049273; details: literature value; read-out: IC50, hematin polymerization inhibition; cited from earlier work
hematin polymerization [2] = assay: Inhibition of hematin polymerization (heme polymerization assay); assay type: biochemical;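 as to %Inh1: test concentrations in µM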;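 as to %Inh2: test concentrations in µM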;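 as to %Inh3: test concentrations in µM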
Description: The ability of the 5-phenoxy primaquine analogs to inhibit hematin polymerization was investigated using a protocol modified from the one described previously. […] After it was left standing for 15 min, Tween 20 (0.5 μM; Sigma) was added. […] The assay was performed in triplicate, and results were expressed as the percentage of inhibition relative to hemozoin formation in a negative control. The IC50 values were obtained from the sigmoidal dose–response curves using nonlinear regression curve fitting analyses with GraphPad Prism version 3.00 software. Each IC50 value is the result of at least three separate experiments.

[3] = Cytotoxicity by sulforhodamine B (SRB) colorimetric assay; assay type: cell-based, African green monkey; details: African green monkey, Vero cells (kidney fibroblasts); Vero cells, 72 h, SRB, mean ± SD of three repeats
Text: (§1) A cytotoxicity test of selected analogs against African green monkey kidney fibroblast (Vero cells) was obtained from Bioassay Laboratory, BIOTEC, NSTDA, Thailand. They were maintained continuously in MEM/EBSS medium (Hyclone Laboratories Inc., South Logan, UT, USA), supplemented with 10% heated fetal bovine serum (GE Healthcare, PAA Laboratories GmbH, Pasching, Austria), 2.2 g/L Sodium bicarbonate (Emsure, Merck kGaA, Darmstadt, Germany), and 1% sodium pyruvate (Sigma). […] Then, the cells were fixed with 100 µL of 10% trichloroacetic acid (Sigma) at 4 °C for 45 min, washed, and dried at room temperature overnight. […] Finally, 200 µL of 10× Tris-base was added to each well to dissolve protein-bound dye. The OD was determined at a wavelength of 510 nm. The control media was used for overall background subtraction as 0% and untreated cells as 100% control without any cytotoxic effect. The IC50 value of each compound was determined from the dose–response curve.

[4] = test system: African green monkey kidney fibroblast (Vero cells); assay: as above; assay type: cell-based; details: Vero CC50 / P. falciparum 3D7 IC50
Text: as §1

[5] = pH 5.0, mean ± SD of three independent repeats, read-out: IC50, inhibition of hemozoin-initiated hematin polymerization
[6] = primary data, repeat 1, read-out: IC50, heme polymerization inhibition, repeat 1
[7] = primary data, repeat 2, read-out: IC50, heme polymerization inhibition, repeat 2
[8] = primary data, repeat 3, read-out: IC50, heme polymerization inhibition, repeat 3

IC50 (P. falciparum 3D7) [µM]	IC50 (hematin polymerization [2]; [5]) [µM]	Compound	%Inh1 (hematin polymerization [2]; conc 2, repeat 1) [%]	%Inh2 (hematin polymerization [2]; conc 2, repeat 2) [%]	%Inh3 (hematin polymerization [2]; conc 2, repeat 3) [%]	%Inh1 (hematin polymerization [2]; conc 10, repeat 1) [%]	%Inh2 (hematin polymerization [2]; conc 10, repeat 2) [%]	%Inh3 (hematin polymerization [2]; conc 10, repeat 3) [%]	%Inh1 (hematin polymerization [2]; conc 50, repeat 1) [%]	%Inh2 (hematin polymerization [2]; conc 50, repeat 2) [%]	%Inh3 (hematin polymerization [2]; conc 50, repeat 3) [%]	%Inh1 (hematin polymerization [2]; conc 100, repeat 1) [%]	%Inh2 (hematin polymerization [2]; conc 100, repeat 2) [%]	%Inh3 (hematin polymerization [2]; conc 100, repeat 3) [%]	%Inh1 (hematin polymerization [2]; conc 200, repeat 1) [%]	%Inh2 (hematin polymerization [2]; conc 200, repeat 2) [%]	%Inh3 (hematin polymerization [2]; conc 200, repeat 3) [%]	%Inh1 (hematin polymerization [2]; conc 400, repeat 1) [%]	%Inh2 (hematin polymerization [2]; conc 400, repeat 2) [%]	%Inh3 (hematin polymerization [2]; conc 400, repeat 3) [%]	also measured
4.62 ± 0.56	286 ± 11.9	COc1cc(NC(C)CCCN)c2ncccc2c1Oc1ccc(C#N)cc1 (centres unmarked) [7e, 4-((8-((5-Aminopentan-2-yl)amino)-6-methoxyquinolin-5-yl)oxy)benzonitrile]	8.32	3.87	7.94	3.78	12.84	9.43	19.32	16.35	21.70	30.12	30.64	17.31	52.26	55.89	45.17	78.42	85.27	69.64	CC50 at 72 h [3]: > 100 µM; SI, selectivity index = CC50 on Vero cells / IC50 in the blood stage [4]: >21.65; IC50 (hematin polymerization [2]; [6]): 291 µM; IC50 (hematin polymerization [2]; [7]): 269 µM; IC50 (hematin polymerization [2]; [8]): 297 µM
7.89 ± 0.5	160 ± 2.2	COc1ccc(Oc2c(OC)cc(NC(C)CCCN)c3ncccc23)cc1 (centres unmarked) [7b, N^4-(6-Methoxy-5-(4-methoxyphenoxy)quinolin-8-yl)pentane-1,4-diamine]	2.65	5.23	1.85	5.02	7.53	11.84	15.24	19.36	16.35	40.12	39.30	42.63	67.25	67.23	71.49	94.57	90.75	98.34	CC50 at 72 h [3]: 55.6 ± 4.34 µM; SI, selectivity index = CC50 on Vero cells / IC50 in the blood stage [4]: 7.05; IC50 (hematin polymerization [2]; [6]): 162 µM; IC50 (hematin polymerization [2]; [7]): 160 µM; IC50 (hematin polymerization [2]; [8]): 157 µM

Compound	IC50 (P. falciparum 3D7) [µM]	IC50 (hematin polymerization [2]; [5]) [µM]	%Inh1 (hematin polymerization [2]; conc 2, repeat 1) [%]	%Inh2 (hematin polymerization [2]; conc 2, repeat 2) [%]	%Inh3 (hematin polymerization [2]; conc 2, repeat 3) [%]	%Inh1 (hematin polymerization [2]; conc 10, repeat 1) [%]	%Inh2 (hematin polymerization [2]; conc 10, repeat 2) [%]	%Inh3 (hematin polymerization [2]; conc 10, repeat 3) [%]	%Inh1 (hematin polymerization [2]; conc 50, repeat 1) [%]	%Inh2 (hematin polymerization [2]; conc 50, repeat 2) [%]	%Inh3 (hematin polymerization [2]; conc 50, repeat 3) [%]	%Inh1 (hematin polymerization [2]; conc 100, repeat 1) [%]	%Inh2 (hematin polymerization [2]; conc 100, repeat 2) [%]	%Inh3 (hematin polymerization [2]; conc 100, repeat 3) [%]	%Inh1 (hematin polymerization [2]; conc 200, repeat 1) [%]	%Inh2 (hematin polymerization [2]; conc 200, repeat 2) [%]	%Inh3 (hematin polymerization [2]; conc 200, repeat 3) [%]	%Inh1 (hematin polymerization [2]; conc 400, repeat 1) [%]	%Inh2 (hematin polymerization [2]; conc 400, repeat 2) [%]	%Inh3 (hematin polymerization [2]; conc 400, repeat 3) [%]	also measured
COc1cc(NC(C)CCCN)c2ncccc2c1 (centres unmarked) [PQ, primaquine bisphosphate, reference compound]	11.3 ± 0.79	320 ± 12	-2.08	16.17	4.69	-9.33	8.67	3.70	12.67	-7.00	5.24	19.42	22.96	19.59	46.18	36.04	39.63	73.12	80.96	77.01	IC50 (hematin polymerization [1]): > 2500 µM; IC50 (hematin polymerization [2]; [6]): 313 µM; IC50 (hematin polymerization [2]; [7]): 310 µM; IC50 (hematin polymerization [2]; [8]): 337 µM
